PubChem BioAssay AID686920 (Broad Institute, 2013)
The source made the active and inactive calls.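 The calls were made as follows: active = fitted curve reaching 35% inhibition at a dose no higher than twice the top valid tested dose; inconclusive = flat fit with 30 to 70% inhibition, or a poor fit; inactive = the rest, including activity in the opposite direction.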

Experiment: suppressors of NR0B1-promoter luciferase reporter, dose response, EWS/Fli inhibitor project, luciferase luminescence, A673 cells, cherry-pick (AID 686920)
Settings: A673 NR0B1-luciferase reporter, viability-normalised luminescence; at 7.5 µM (top of the series)

SMILES	activity change, negative = inhibition
O=C(CCCCl)Nc1nc(-c2ccc3c(c2)OCCO3)cs1	80% (inactive)

Same assay, conditions: A673 NR0B1-luciferase reporter, viability-normalised luminescence; at 21 µM (top of the series)

SMILES	activity change, negative = inhibition
COc1cc(C(c2c(C)[nH][nH]c2=O)c2c(C)[nH][nH]c2=O)ccc1OC(C)C	28.1% (inactive)
COCc1cc(C)nc2sc(C(=O)NCCO)c(-n3cccc3)c12	112% (inactive)
COC(=O)C[C@@H]1CC[C@@H]2[C@@H](COc3ccc(NC(=O)Nc4cccc(F)c4)cc3C(=O)N2C)O1	-4.28% (inactive)

Same assay, conditions: A673 NR0B1-luciferase reporter, viability-normalised luminescence; at 68 µM (top of the series)

SMILES	activity change, negative = inhibition
Cc1c(N=Cc2cc(Br)cc(Br)c2O)cccc1C(=O)O	14.9% (inactive)
COC(=O)[C@H]1[C@H](CO)[C@H]2Cn3c(ccc(-c4ccccc4F)c3=O)[C@@H]1N2CC1CCCC1	-18% (inactive)
COC(=O)C[C@@H]1CC[C@@H]2[C@@H](COc3ccc(NC(=O)Nc4cccc(Cl)c4)cc3C(=O)N2C)O1	-7.4% (inactive)
CN(C)C(=S)N=Nc1[nH]c2ccccc2c1O	13% (inactive)
CCCc1nc2ccc(NC(=O)c3cccs3)cc2c(=O)n1Cc1ccccc1Cl	5.64% (inactive)
C/C=C/c1ccc(C2[C@@H]3CN(C(=O)Cc4ccccc4)C[C@H]2N3)cc1 (stereo partly specified)	-8.33% (inactive)
CN(C)[C@@H]1CCC[C@@H]1OC(=O)C(c1ccccc1)c1ccccc1	12.1% (inactive)
COc1cc(/C=N\Nc2nc(-c3ccc(C)cc3)c(NC(C)=O)s2)ccc1O	80.8% (inactive)
N=c1ccn2c(n1)O[C@H]1[C@H](O)[C@@H](CO)O[C@H]12	-26.9% (inactive)
CCn1c(/C=N/NC(=O)c2ccc(OC)cc2)nc2ccccc21	30.3% (inactive)
O=C(Cc1nn[nH]n1)c1ccccc1O	7.17% (inactive)
c1cncc(-c2ccc([C@@H]3[C@H]4CNC[C@@H]3N4CC3CCOCC3)cc2)c1	-7.31% (inactive)
Brc1ccc(CSc2nnc(-c3ccco3)o2)cc1	86.7% (inactive)
CN(C(=O)COC(=O)c1cc(-c2ccccc2Cl)nc2ccccc12)C1CCS(=O)(=O)C1 (stereo unspecified)	9.88% (inactive)
COC(=O)C[C@H]1CC[C@@H](NC(=O)Nc2ccc(C(F)(F)F)cc2)[C@H](CO)O1	16.7% (inactive)
COc1ccccc1-c1cn(CC[C@H]2CC[C@@H](NC(=O)C3CCCC3)[C@@H](CO)O2)nn1	-4.29% (inactive)
COc1ccccc1NS(=O)(=O)c1cc(NC(=O)c2cc3ccccc3oc2=O)ccc1C	53.4% (inactive)
COC(=O)C[C@@H]1CC[C@@H]2[C@H](COc3ccc(NC(=O)c4cccc(Cl)c4)cc3C(=O)N2C)O1	-6.57% (inactive)
COC(=O)C[C@H]1CC[C@@H]2[C@H](COc3ccc(NC(=O)Nc4cccc(Cl)c4)cc3C(=O)N2C)O1	14.5% (inactive)
CCOc1cc2[nH]c(=S)n(Cc3ccc(C(=O)N4CCN(C)CC4)cc3)c(=O)c2cc1OCC	20% (inactive)
CCCn1nnc(NC(=S)NC(=O)C(C)(C)C)n1	37.8% (inactive)

SMILES	activity change, negative = inhibition
COc1ccc(NC(=S)N=Nc2c(O)[nH]c3ccccc23)cc1	29.4% (inactive)
CC1(CCc2ccccc2)NC(=O)N(CC(=O)N2CC(=O)Nc3ccccc32)C1=O (stereo unspecified)	6.97% (inactive)
Cc1noc(C)c1NC(=O)Nc1ccc2c(c1)CC(=O)N([C@@H](C)CO)C[C@@H](C)[C@@H](CN(C)Cc1ccc(Cl)c(Cl)c1)O2	-31.5% (inactive)
Nc1nc(N)c2c(ccc3nccc32)[nH]1	55.3% (inactive)
Oc1c(Cl)cc(Cl)c2cccnc12	-29.3% (inactive)
CCc1c(C(=O)NN2C(=O)C3CCCCC3C2=O)csc1C (stereo unspecified)	27.7% (inactive)
Cc1cc(C(=O)NNC(=O)c2ccc(S(=O)(=O)N(C)C)cc2)c(C)o1	5.18% (inactive)
Cc1occc1-c1n[nH]c(=S)n1C	10.2% (inactive)
C/C=C/c1ccc([C@H]2[C@@H](CO)N3C(=O)CN(S(=O)(=O)c4cccc(F)c4)C[C@@H]23)cc1	-7.12% (inactive)
C(=C\c1ccc(C2[C@H]3CNC[C@@H]2N3Cc2ccccn2)cc1)/c1ccccc1 (stereo partly specified)	32.3% (inactive)
COc1cc(/C=N/NC(=O)c2csc3c2CCCC3)cc(OC)c1O	16.3% (inactive)
COC(=O)C(CC#Cc1ccc2c(c1)[C@]1(C(=O)N2)[C@H](c2ccc(OCCO)cc2)N2[C@H](c3ccccc3)[C@H](c3ccccc3)OC(=O)[C@H]2[C@@H]1C(=O)N1CCN(c2ncccn2)CC1)C(=O)OC	0.883% (inactive)
C=CCOC(=O)c1sc(NC(=O)c2ccc(OC)cc2)nc1C	39% (inactive)
Nc1ccn([C@@H]2O[C@H](CO)[C@@H](O)C2O)c(=O)n1 (stereo partly specified)	-31.3% (inactive)
CCc1ccc(Cn2ncc3c(C(=O)O)cc(C)nc32)cc1	13.8% (inactive)
Cc1ccccc1N=Nc1c(O)n(C)c2ccccc12	-31.3% (inactive)
Cc1ccc(NC(=O)COC(=O)c2ccc3c(c2)OCO3)cc1S(=O)(=O)N1CCCCC1	9.71% (inactive)
CC(Oc1cccc(Cl)c1)C(=O)NCCCCc1ccccc1 (stereo unspecified)	4.85% (inactive)
CC(=O)c1ccc(N(C(=O)Cn2nnc3ccccc32)C(C(=O)NCc2ccccc2)c2ccccn2)cc1 (stereo unspecified)	102% (inactive)
COC(=O)C[C@@H]1CC[C@@H]2[C@H](COc3ccc(NC(=O)c4cc(F)cc(F)c4)cc3C(=O)N2C)O1	-0.173% (inactive)
CCOc1ccc(NC(=O)C(=O)N/N=C\c2ccc(CNS(=O)(=O)c3ccccc3)o2)cc1	-7.85% (inactive)

SMILES	activity change, negative = inhibition
CCS(=O)(=O)N1Cc2ccccc2CC1C(=O)Nc1nnc(SCc2ccc(C#N)cc2)s1 (stereo unspecified)	-0.731% (inactive)
CC(=O)Nc1ccc(OCC(=O)N(CC(C)C)C2CCS(=O)(=O)C2)cc1 (stereo unspecified)	6.28% (inactive)
N/C(Cc1nc(-c2ccc(F)cc2)cs1)=N\O	42.1% (inactive)
CN(C)C(=O)c1ccc(-c2ccccc2[C@@H]2[C@@H](CO)N(C(=O)C3CC3)[C@H]2C#N)cc1	-1.25% (inactive)
CCCCOc1ccc(NC(=O)C(=O)NCCCn2ccnc2)cc1	-0.492% (inactive)
COC(=O)C[C@@H]1CC[C@@H]2[C@@H](COc3ccc(NC(=O)Cc4cccs4)cc3C(=O)N2C)O1	-27.4% (inactive)
C[C@H](CO)N1C[C@H](C)[C@H](CN(C)Cc2ccc(C(=O)Nc3ccccc3N)cc2)Oc2ccc(N(C)C)cc2CC1=O	10.7% (inactive)
CCNC(=O)[C@@H]1[C@@H](CO)[C@@H]2Cn3c(ccc(C4=CCCCC4)c3=O)[C@H]1N2CC	-2.58% (inactive)
O=C(Nc1cccc(Oc2ccc3c(c2)C(=O)NC3=O)c1)c1cccs1	-4.58% (inactive)
C/C(=N\N(c1ccccc1)c1ccccc1)c1ccco1	-1.23% (inactive)
Cc1ccsc1C(=O)OCC(=O)NCCC1=CCCCC1	97.5% (inactive)
COC(=O)C[C@H]1C=C[C@@H](NC(=O)Nc2ccc(C(F)(F)F)cc2)[C@H](CO)O1	8.17% (inactive)
CN(C)Cc1c(O)ccc2c1O/C(=C\C=C\c1ccccc1)C2=O	5.05% (inactive)
CC(NC(=O)c1ccco1)c1nc(-c2ccc(C(C)(C)C)cc2)no1 (stereo unspecified)	73.3% (inactive)
COC(=O)c1c(C)[nH]c(/C=N/Nc2ccccc2)c1C	38.6% (inactive)
O=C(CNC(=O)Cc1ccccc1)N=Nc1c(O)n(Cc2ccc3c(c2)OCO3)c2ccccc12	-28.3% (inactive)
COc1ccc(C/C(N)=N/OC(C)=O)cc1OC	13.8% (inactive)
COc1cccc(S(=O)(=O)N(C)C[C@H]2OCc3cnnn3CCCC(=O)N([C@@H](C)CO)C[C@H]2C)c1	-19.9% (inactive)
S=C(NCCN1CCOCC1)Nc1ccccc1Cl	15.5% (inactive)
Cc1ccc(N=C2NC(=O)/C(=C\c3cccs3)S2)cc1C	48.8% (inactive)
